Measured values taken from patent US10021881B2, “Vaporized administration of pesticides” (priority 2016, dated 2018).

What was measured:
Botrytis cinerea [1] = experiment: In vivo assay of vaporized pyrimethanil to inhibit Botrytis cinerea in blueberries; conditions: for Gray Mold Severity (0-4): scale 0 no disease to 4 exceptionally high
Excerpt: An in vivo assay was used to evaluate the ability of vaporized pyrimethanil to control pathogenic infection of blueberries by Botrytis cinerea.

Fusarium sambucinum = experiment: In vitro assay of vaporized pyrimethanil to inhibit pathogenic fungal growth (agar plates); assay type: cell-based; conditions: F. sambucinum, 3 days at 23° C.
Procedure: (§1) An in vitro assay was used to evaluate the ability of pyrimethanil to vaporize in order to control the infection of various pathogenic microorganisms when applied to the plants and plant parts. For in vitro experiments, a 12-well microtiter plate, 6-well, or a 10-cm Petri plates each containing 7.5 ml, 16.5 or 22 ml volumes, respectively, of half strength Potato Dextrose Agar (PDA) were prepared. Each well or plate was inoculated with 1 microliter (μL) of 1×10^5 spores/ml of the appropriate pathogenic spore suspension (e.g., Botrytis cinerea, Penicillium expansum, Glomerella cingulata, Penicillium digitatum, Aspergillus flavus, Colletotrichum acutatum, Fusarium sambucinum, and Geotrichum candidum) by spotting the pathogen on the center of the agar well or plate. The inoculated microtiter or Petri plate was then sealed with a breathable film. One set of triplicate plates for each pathogen was placed inside the bottom of an air-tight 36-L desiccator chamber and closed with secure clamps.
(§2) Evaporation of the acetone left behind solid crystals of pyrimethanil.
(§3) The tube of the device was attached to a port on the side of the chamber that allowed airflow of the pyrimethanil vapor into the chamber. The chamber was at room temperature during administration of the pyrimethanil. The chambers were then incubated for three (3) days at 23° C. After incubation, post-treatment growth inhibition of each in vitro pathogen was measured on the inoculated plates and compared to control samples.

Geotrichum candidum = experiment: as above; assay type: cell-based; conditions: G. candidum, 3 days at 23° C.
Procedure: as §1, §2, §3

Penicillium digitatum = experiment: as above; assay type: cell-based; conditions: P. digitatum, 3 days at 23° C.
Procedure: as §1, §2, §3

Botrytis cinerea [2] = experiment: as above; assay type: cell-based; conditions: B. cinerea, 3 days at 23° C.
Procedure: as §1, §2, §3

Colletotrichum acutatum = experiment: as above; assay type: cell-based; conditions: C. acutatum, 3 days at 23° C.
Procedure: as §1, §2, §3

Glomerella cingulata = experiment: as above; assay type: cell-based; conditions: G. cingulata, 3 days at 23° C.
Procedure: as §1, §2, §3

Penicillium expansum = experiment: as above; assay type: cell-based; conditions: P. expansum, 3 days at 23° C.
Procedure: as §1, §2, §3

Aspergillus flavus = experiment: as above; assay type: cell-based; conditions: A. flavus, 3 days at 23° C.
Procedure: as §1, §2, §3

Botrytis cinerea [3] = experiment: In vivo assay of vaporized pyrimethanil to inhibit Botrytis cinerea in grapes; conditions: for Gray Mold Severity (0-4): scale 0 no disease to 4 exceptionally high
Excerpt: An in vivo assay was used to evaluate the ability of vaporized pyrimethanil to control pathogenic infection of Table grapes by Botrytis cinerea.

[4] = assay type: physicochemical
Procedure: This example relates to experiments performed to determine if degradation of pyrimethanil technical compounds observed at high temperatures was due to evaporation. In the present example, seven milligrams (7 mg) of pyrimethanil compounds 1 and 2 were analyzed in air by Thermo Gravity Analysis-Mass Spectrometry (TGA-MS). The pyrimethanil samples were loaded onto a TGA platinum pan of the Q5000 TGA instrument (TA instruments) and using standard TGA test methods as follows: select gas 2 (air), data storage on, ramp at 5° C. per minute to 100° C., isothermal for 180 mins, data storage off, equilibrate at 60° C., and end method. An isothermal method was also performed according to standard methods.
The TGA furnace was closed and purged with helium, then heated from room temperature to about 300° C. at 10° C. per minute. […] An isothermal method was also performed according to standard methods.

[5] = 0.01 mg/L, Day 0 (after 3 days at 21° C.)
[6] = 0.01 mg/L, Day 1 (after 3 days at 21° C.)
[7] = 0.01 mg/L, Day 2 (after 3 days at 21° C.)
[8] = 0.01 mg/L, Day 3 (after 3 days at 21° C.)
[9] = 0.03 mg/L, Day 0 (after 3 days at 21° C.)
[10] = 0.03 mg/L, Day 1 (after 3 days at 21° C.)
[11] = 0.03 mg/L, Day 2 (after 3 days at 21° C.)
[12] = 0.03 mg/L, Day 3 (after 3 days at 21° C.)
[13] = 0.1 mg/L, Day 0 (after 3 days at 21° C.)
[14] = 0.1 mg/L, Day 1 (after 3 days at 21° C.)
[15] = 0.1 mg/L, Day 2 (after 3 days at 21° C.)
[16] = 0.1 mg/L, Day 3 (after 3 days at 21° C.)
[17] = 0.3 mg/L, Day 0 (after 3 days at 21° C.)
[18] = 0.3 mg/L, Day 1 (after 3 days at 21° C.)
[19] = 0.3 mg/L, Day 2 (after 3 days at 21° C.)
[20] = 0.3 mg/L, Day 3 (after 3 days at 21° C.)

In the case of `Cc1cc(C)nc(Nc2ccccc2)n1` [pyrimethanil, 4,6-Dimethyl-N-phenylpyrimidin-2-amine], the “Gray Mold Incidence (%)” value (Botrytis cinerea [1]; [5]) is reported as 92.6%, the “Gray Mold Severity (0-4)” value (Botrytis cinerea [1]; [5]) is reported as 0.9 and the “Gray Mold Incidence (%)” value (Botrytis cinerea [1]; [6]) is reported as 96.3%. The “Gray Mold Severity (0-4)” value (Botrytis cinerea [1]; [6]) was 1.1, the “Gray Mold Incidence (%)” value (Botrytis cinerea [1]; [7]) was 98.8% and the “Gray Mold Severity (0-4)” value (Botrytis cinerea [1]; [7]) was 1.4. The “Gray Mold Incidence (%)” value (Botrytis cinerea [1]; [8]) was 98.8%, the “Gray Mold Severity (0-4)” value (Botrytis cinerea [1]; [8]) was 2.1 and the “Gray Mold Incidence (%)” value (Botrytis cinerea [1]; [9]) was 82.7%. The “Gray Mold Severity (0-4)” value (Botrytis cinerea [1]; [9]) was 0.7, the “Gray Mold Incidence (%)” value (Botrytis cinerea [1]; [10]) was 97.5% and the “Gray Mold Severity (0-4)” value (Botrytis cinerea [1]; [10]) was 1.1. For the same compound, the “Gray Mold Incidence (%)” value (Botrytis cinerea [1]; [11]) was 97.5%, the “Gray Mold Severity (0-4)” value (Botrytis cinerea [1]; [11]) was 1.3 and the “Gray Mold Incidence (%)” value (Botrytis cinerea [1]; [12]) was 97.5%. The “Gray Mold Severity (0-4)” value (Botrytis cinerea [1]; [12]) was 1.7, the “Gray Mold Incidence (%)” value (Botrytis cinerea [1]; [13]) was 64.2% and the “Gray Mold Severity (0-4)” value (Botrytis cinerea [1]; [13]) was 0.5. The “Gray Mold Incidence (%)” value (Botrytis cinerea [1]; [14]) was 87.8%, the “Gray Mold Severity (0-4)” value (Botrytis cinerea [1]; [14]) was 0.9 and the “Gray Mold Incidence (%)” value (Botrytis cinerea [1]; [15]) was 94.8%. The “Gray Mold Severity (0-4)” value (Botrytis cinerea [1]; [15]) was 1.1, the “Gray Mold Incidence (%)” value (Botrytis cinerea [1]; [16]) was 94.6% and the “Gray Mold Severity (0-4)” value (Botrytis cinerea [1]; [16]) was 1.7. For the same compound, the “Gray Mold Incidence (%)” value (Botrytis cinerea [1]; [17]) was 22.2%, the “Gray Mold Severity (0-4)” value (Botrytis cinerea [1]; [17]) was 0.2 and the “Gray Mold Incidence (%)” value (Botrytis cinerea [1]; [18]) was 33.8%. For the same compound, the “Gray Mold Severity (0-4)” value (Botrytis cinerea [1]; [18]) was 0.2, the “Gray Mold Incidence (%)” value (Botrytis cinerea [1]; [19]) was 51.2% and the “Gray Mold Severity (0-4)” value (Botrytis cinerea [1]; [19]) was 0.3. For the same compound, the “Gray Mold Incidence (%)” value (Botrytis cinerea [1]; [20]) was 52.0%, the “Gray Mold Severity (0-4)” value (Botrytis cinerea [1]; [20]) was 0.3 and the “Mycelial Growth Inhibition (%)” value (Fusarium sambucinum; 0.1 mg/L headspace) was 58.3%. For the same compound, the “Mycelial Growth Inhibition (%)” value (Fusarium sambucinum; 0.3 mg/L headspace) was 89.4%, the “Mycelial Growth Inhibition (%)” value (Fusarium sambucinum; 1 mg/L headspace) was 92.2% and the “Mycelial Growth Inhibition (%)” value (Geotrichum candidum; 0.1 mg/L headspace) was 57.8%. The “Mycelial Growth Inhibition (%)” value (Geotrichum candidum; 0.3 mg/L headspace) was 73.1%, the “Mycelial Growth Inhibition (%)” value (Geotrichum candidum; 1 mg/L headspace) was 75.2% and the “Mycelial Growth Inhibition (%)” value (Penicillium digitatum; 0.1 mg/L headspace) was 100.0%. For the same compound, the “Mycelial Growth Inhibition (%)” value (Penicillium digitatum; 0.3 mg/L headspace) was 100.0%, the “Mycelial Growth Inhibition (%)” value (Penicillium digitatum; 1 mg/L headspace) was 100.0% and the “Mycelial Growth Inhibition (%)” value (Botrytis cinerea [2]; 0.1 mg/L headspace) was 91.9%. The “Mycelial Growth Inhibition (%)” value (Botrytis cinerea [2]; 0.3 mg/L headspace) was 92.1%, the “Mycelial Growth Inhibition (%)” value (Botrytis cinerea [2]; 1 mg/L headspace) was 95.2% and the “Mycelial Growth Inhibition (%)” value (Colletotrichum acutatum; 0.1 mg/L headspace) was 100.0%. For the same compound, the “Mycelial Growth Inhibition (%)” value (Colletotrichum acutatum; 0.3 mg/L headspace) was 90.0%, the “Mycelial Growth Inhibition (%)” value (Colletotrichum acutatum; 1 mg/L headspace) was 89.7% and the “Mycelial Growth Inhibition (%)” value (Glomerella cingulata; 0.1 mg/L headspace) was 31.5%. The “Mycelial Growth Inhibition (%)” value (Glomerella cingulata; 0.3 mg/L headspace) was 62.1%, the “Mycelial Growth Inhibition (%)” value (Glomerella cingulata; 1 mg/L headspace) was 77.3% and the “Mycelial Growth Inhibition (%)” value (Penicillium expansum; 0.1 mg/L headspace) was 92.4%. For the same compound, the “Mycelial Growth Inhibition (%)” value (Penicillium expansum; 0.3 mg/L headspace) was 100.0%, the “Mycelial Growth Inhibition (%)” value (Penicillium expansum; 1 mg/L headspace) was 100.0% and the “Mycelial Growth Inhibition (%)” value (Aspergillus flavus; 0.1 mg/L headspace) was 100.0%. The “Mycelial Growth Inhibition (%)” value (Aspergillus flavus; 0.3 mg/L headspace) was 100.0%, the “Mycelial Growth Inhibition (%)” value (Aspergillus flavus; 1 mg/L headspace) was 100.0% and the “Gray Mold Incidence (%)” value (Botrytis cinerea [3]; [5]) was 100.0%. The “Gray Mold Severity (0-4)” value (Botrytis cinerea [3]; [5]) was 1.6, the “Gray Mold Incidence (%)” value (Botrytis cinerea [3]; [6]) was 100.0% and the “Gray Mold Severity (0-4)” value (Botrytis cinerea [3]; [6]) was 2.0. The “Gray Mold Incidence (%)” value (Botrytis cinerea [3]; [7]) was 100.0%, the “Gray Mold Severity (0-4)” value (Botrytis cinerea [3]; [7]) was 2.0 and the “Gray Mold Incidence (%)” value (Botrytis cinerea [3]; [8]) was 100.0%. The “Gray Mold Severity (0-4)” value (Botrytis cinerea [3]; [8]) was 3.6, the “Gray Mold Incidence (%)” value (Botrytis cinerea [3]; [9]) was 100.0% and the “Gray Mold Severity (0-4)” value (Botrytis cinerea [3]; [9]) was 1.4. The “Gray Mold Incidence (%)” value (Botrytis cinerea [3]; [10]) was 100.0%, the “Gray Mold Severity (0-4)” value (Botrytis cinerea [3]; [10]) was 2.0 and the “Gray Mold Incidence (%)” value (Botrytis cinerea [3]; [11]) was 100.0%. The “Gray Mold Severity (0-4)” value (Botrytis cinerea [3]; [11]) was 2.0, the “Gray Mold Incidence (%)” value (Botrytis cinerea [3]; [12]) was 100.0% and the “Gray Mold Severity (0-4)” value (Botrytis cinerea [3]; [12]) was 3.4. For the same compound, the “Gray Mold Incidence (%)” value (Botrytis cinerea [3]; [13]) was 94.4%, the “Gray Mold Severity (0-4)” value (Botrytis cinerea [3]; [13]) was 0.5 and the “Gray Mold Incidence (%)” value (Botrytis cinerea [3]; [14]) was 98.1%. The “Gray Mold Severity (0-4)” value (Botrytis cinerea [3]; [14]) was 0.7, the “Gray Mold Incidence (%)” value (Botrytis cinerea [3]; [15]) was 98.1% and the “Gray Mold Severity (0-4)” value (Botrytis cinerea [3]; [15]) was 1.1. The “Gray Mold Incidence (%)” value (Botrytis cinerea [3]; [16]) was 98.1%, the “Gray Mold Severity (0-4)” value (Botrytis cinerea [3]; [16]) was 1.8 and the “Gray Mold Incidence (%)” value (Botrytis cinerea [3]; [17]) was 16.7%. For the same compound, the “Gray Mold Severity (0-4)” value (Botrytis cinerea [3]; [17]) was 0.1, the “Gray Mold Incidence (%)” value (Botrytis cinerea [3]; [18]) was 94.4% and the “Gray Mold Severity (0-4)” value (Botrytis cinerea [3]; [18]) was 0.5. The “Gray Mold Incidence (%)” value (Botrytis cinerea [3]; [19]) was 94.4%, the “Gray Mold Severity (0-4)” value (Botrytis cinerea [3]; [19]) was 0.8 and the “Gray Mold Incidence (%)” value (Botrytis cinerea [3]; [20]) was 100.0%. For the same compound, the “Gray Mold Severity (0-4)” value (Botrytis cinerea [3]; [20]) was 1.3 and the thermal degradation [4] was “no thermal degradation”.
